Measurements taken from PMC12430429, “Synthesis, Structure, DNA/BSA Binding, DNA Cleaving, Cytotoxic and SOD Mimetic Activities of Copper(II) Complexes Derived from Methoxybenzylamine Schiff Base Ligands” (Molecules, 2025).
Where two headings read alike, the source gives them in different places.

Tests used:
EB–DNA adduct (ct-DNA) = experiment: EB–DNA displacement method (fluorescence quenching); assay type: binding, calf; conditions: for Stern–Volmer quenching constant Ksv / quenching rate constant kq: EB–DNA adduct; for quenching rate constant kq: τ0 = 23 × 10^−9 s; for Δ I/I0, EB–DNA fluorescence quenching: maximum quenching of EB–DNA emission
Description: Competitive-binding experiments using the ethidium bromide (EB) displacement method from DNA may provide another confirmation of the binding affinity of the complexes. EB is a well-known DNA intercalator able to form an EB–DNA adduct by its insertion between adjacent DNA base pairs. The EB–DNA adduct is distinguished by an intense fluorescence emission band at 615 nm after excitation at 540 nm. Introducing a compound with DNA affinity leads to emission intensity decrease of the EB–DNA adduct as a result of the competition between the measured compound and EB for the binding sites within DNA.
Competitive-binding experiments to determine the displacement of the intercalator ethidium bromide (EB) from the EB–DNA adduct were conducted by fluorescence spectroscopy. To prepare the EB–DNA adduct, 20 μM EB and 54 μM ct-DNA were added to citrate buffer (sodium citrate at 15 mM and sodium chloride at 150 mM at pH = 7.0). The addition of increasing concentrations of complexes 4a–c (c = 1 mM) to a solution of the EB–DNA complex corresponded to the intercalating effect of the complexes. The concentration of the added complexes ranged from 0 to 0.2 mM. Fluorescence emission spectra were recorded in the range of 550–800 nm with an excitation wavelength of 515 nm. […] Quenching of the EB–DNA emission band by the compounds 4a–c was calculated using the Stern–Volmer equation (Equations (2)–(4)).
The extent of the inner-filter effect can be roughly estimated with the following equation:(2) Icorr=Imeas×10^ε(λexc)cd/2×10^ε(λem)cd/2 where Icorr is the corrected intensity, Imeas is the measured intensity, c is the quencher concentration, d is the width of the cuvette (1 cm) and ε(λexc) and ε(λem) are the […] of the quencher at the excitation and the emission wavelength calculated from the UV–Vis spectra of the complexes.
The quenching of the EB–DNA emission band by compounds was calculated via the Stern–Volmer equation:(3) Io/I=1+kqτ0Q=1+KSVQ where Io = the initial fluorescence intensity of the EB–DNA adduct, and I is the fluorescence intensity of the EB–DNA adduct after the addition of the quencher (studied complexes), kq = the quenching rate constant, KSV = the Stern–Volmer constant, τo = the average fluorescence lifetime of the EB–DNA adduct (23 × 10^−9 s), [Q] = the quencher concentration, respectively, KSV (in M^−1) can be obtained by the slope of the Stern–Volmer plot and kq (in M^−1 s^−1) can be calculated from Equation (4):(4) KSV=kqτ0

A549 cells = experiment: MTT cytotoxicity assay, A549; assay type: cell-based, human; conditions: 72 h
Description: (§1) The cytotoxicity study of the prepared copper(II) complexes was performed using the MTT assay on human cell lines—A549 (adenocarcinoma human alveolar basal epithelial cell line), HepG2 (human liver cancer cell line) and HEL (human lung fibroblast cell line, normal cells).
(§2) The cytotoxicity of the prepared copper(II) complexes in human cell lines was evaluated using the 3-(4,5-dimethylthiazol-2-yl)-2,5-diphenyltetrazolium bromide (MTT) assay following the protocol by Mosmann. Briefly, A549 (human lung epithelial cells, carcinoma), HepG2 (human liver epithelial cells, carcinoma) and HEL (human lung fibroblast cells, normal) cells were seeded in plastic 96-well plates at a density of 1.5–2 × 10^4 cells per well. […] After the treatment, the samples were washed with phosphate-buffered saline (PBS), followed by 4 h of incubation with 1 mg/mL of MTT. Subsequently, the MTT solution was removed, and the formed formazane solids were dissolved in dimethyl sulfoxide for 30 min. The photometric evaluation (at 540 nm and 690 nm) was carried out using an xMark™ Microplate Absorbance Spectrophotometer (Bio-Rad, Hercules, CA, USA) [88].
(§3) A549 (ATCC® CCL-185), HepG2 (ATCC® HB-8065) and HEL299 (ATCC® CCL-137) cells were obtained from Lambda Life (Bratislava, Slovakia). A549 cells were kept in Dulbecco’s Modified Eagle’s Medium (DMEM) supplemented with 10% fetal bovine serum (FBS) and 1% antibiotics (penicillin and streptomycin). HepG2 cells were kept in Williams medium supplemented with 10% fetal bovine serum (FBS) and 1% antibiotics (penicillin and streptomycin). HEL299 cells were kept in Minimum Essential Medium (MEM) supplemented with 10% fetal bovine serum (FBS), 1% antibiotics (penicillin and streptomycin) and 1% non-essential amino acids (NEAA). The cells were cultured in a humidified atmosphere of 5% CO2 at 37 °C. Once the cells reached approximately 80% confluence, they were harvested and subcultured after trypsin treatment.

[1] = system: HEL cells (human lung fibroblast, normal); experiment: MTT cytotoxicity assay, HEL; assay type: cell-based; conditions: 72 h
Description: as §1, §2, §3

[2] = SOD mimetic activity / radical scavenging assay (INT method); assay type: biochemical; conditions: for Activity at c1 (%), inhibition of radical transfer to INT: c1 = 0.572 mM
Description: The radical scavenging ability with respect to the SOD mimetic activity of the prepared complexes was determined by the INT method. This method is based on a competitive reaction with the superoxide anion radical from KO2 between the measured compound (complex) and 2-(4-Iodophenyl)-3-(4-nitrophenyl)-5-phenyl-2H-tetrazolium chloride (INT). INT reacts with the single electron of O2^− and produces blue-green formazane detected as light absorption at 500 nm. Complexes with good antiradical activity also react with O2^−, and as a result of this, less formazane is formed.
The first type of antiradical activity measurements involved the determination of inhibition percent values of electron transfer on INT at specific concentrations (Table 9). Two concentrations were selected to achieve good solubility of the complexes (4 and 1 mM for 4a and 4c, 2 and 1 mM for 4b). The complex 4b dissolved readily at a concentration of 4 mM, but the mixture was very dark, making measurements at 500 nm difficult. Therefore, a less concentrated initial solution was used (2 mM) as the higher concentration. In total, 0.5 mL of the initial solutions was used to prepare sample solutions that also contained INT and KO2 solutions and DMSO with an overall volume of 3.5 mL. The resulting concentrations were c1 = 0.572 mM, c1* = 0.286 mM and c2 = 0.143 mM, respectively. Complexes 4a and 4c once again provided high percentages at c1 (approximately 96–99%) but the activity dropped below 24% at c2, while complex 4b maintained mediocre activity at both concentrations. It seems that the concentration increase had only a small effect on the activity of 4b; something similar was also observed in the DNA cleavage study for complex 4b. The complexes were compared with the model compound cystamine, which was used as a standard for superoxide antiradical scavenging due to the presence of a free […] group, which is also present in glutathione.
To improve the comparability of SOD mimetic activity, IC50 concentrations were determined by performing a series of measurements with decreasing concentration. IC50 values were calculated from the trend function equation as the concentration with 50% inhibition of electron transfer on INT (Table 10).
The method is based on the agent 2-(4-Iodophenyl)-3-(4-nitrophenyl)-5-phenyl-2H-tetrazolium chloride (INT), able to scavenge a superoxide radical anion from KO2. The reaction produces a blue-green formazane, which is detected as light absorption at 500 nm. The radical scavengers (measured complexes) compete with INT for radicals and reduce the formation of formazane and light absorption at 500 nm. Antiradical activity was measured on a Synergy HT BioTek spectrophotometer. DMSO was used as the solvent for the complex and KO2 (saturated solution). The INT initial solution (4 M) was prepared in a sodium tetraborate buffer solution with pH adjusted to 7.1 with HCl.
For each measurement, an initial solution of the sample (0.5 mL) of a specific concentration (4–0.1 mM) was prepared in DMSO. Due to the addition of INT (0.5 mL) and KO2 (0.5 mL) solutions and additional DMSO (2 mL), the concentrations of the measured complexes decreased seven times (3.5 mL of total mixture). Each result was the average value of three parallel measurements expressed with a standard deviation (more information in the Supplementary Materials). For the determination of SOD-IC50, several measurements with decreasing sample concentration were performed. […] A linear trend function of the percentage of inhibition and negative logarithm of concentration was used to calculate the SOD-IC50 value as the concentration with 50% inhibition of INT–formazane formation. […]
Green: 5c 5 mM (S. cerevisiae 1x10^9 cells /ml + 0.5 ml 0.9% NaCl + 0.5 ml 5c + 0.1 ml Resazurin OX) measured in time
S6. SOD Mimetic A ctivity A ssay
For each measurement, an initial solution of the sample of a specific concentration was prepared […]

[3] = 50% inhibition of electron transfer on INT, read-out: SOD-IC50

COc1ccccc1CN=Cc1ccccc1[O-].COc1ccccc1CN=Cc1ccccc1[O-].[Cl-].[Cl-].[Cu+2].[Cu+2] [Complex 4a, [Cu2 (Sal-2-MeOBn)2 Cl2]]
Stern–Volmer quenching constant Ksv (EB–DNA adduct (ct-DNA)): 4.58 (±0.10) M^−1 × 10^3 | quenching rate constant kq (EB–DNA adduct (ct-DNA)): 1.98 (±0.05) M^−1 s^−1 × 10^11 | Δ I/I0, EB–DNA fluorescence quenching (EB–DNA adduct (ct-DNA)): 45.7% | IC50 (A549 cells): 66.4 ± 6.2 µM | IC50 [1]: 65.9 ± 6.9 µM | IC50 [2, 3]: 242 ± 1 µM | Activity at c1 (%), inhibition of radical transfer to INT [2]: 95.8 ± 2.2%

COc1cccc(CN=Cc2ccccc2[O][Cu][O]c2ccccc2C=NCc2cccc(OC)c2)c1 [Complex 4b, [Cu (Sal-3-MeOBn)2]]
Stern–Volmer quenching constant Ksv (EB–DNA adduct (ct-DNA)): 3.61 (±0.09) M^−1 × 10^3 | quenching rate constant kq (EB–DNA adduct (ct-DNA)): 1.56 (±0.04) M^−1 s^−1 × 10^11 | Δ I/I0, EB–DNA fluorescence quenching (EB–DNA adduct (ct-DNA)): 40.1% | IC50 (A549 cells): 127 ± 8.1 µM | IC50 [1]: 44.3 ± 3.6 µM | IC50 [2, 3]: 1090 ± 56 µM | IC50 ([2]; INT method, read-out: concentration of 50% inhibition (SOD-IC50), given as range): > 1000 µM | Activity at c1* (%), inhibition of radical transfer to INT ([2]; c1* = 0.286 mM (reduced for complex 4b)): 40.1 ± 1.9 * % | Activity at c2 (%), inhibition of radical transfer to INT ([2]; c2 = 0.143 mM): 35.8 ± 1.3%

COc1ccc(CN=Cc2ccccc2[O-])cc1.COc1ccc(CN=Cc2ccccc2[O-])cc1.[Cl-].[Cl-].[Cu+2].[Cu+2] [Complex 4c, [Cu2 (Sal-4-MeOBn)2 Cl2]]
Stern–Volmer quenching constant Ksv (EB–DNA adduct (ct-DNA)): 3.82 (±0.12) M^−1 × 10^3 | quenching rate constant kq (EB–DNA adduct (ct-DNA)): 1.66 (±0.05) M^−1 s^−1 × 10^11 | Δ I/I0, EB–DNA fluorescence quenching (EB–DNA adduct (ct-DNA)): 40.7% | IC50 (A549 cells): 72 ± 6.5 µM | IC50 [1]: 62.9 ± 6.2 µM | IC50 [2, 3]: 189 ± 11 µM | Activity at c1 (%), inhibition of radical transfer to INT [2]: 98.9 ± 0.5%
